Consider 1 compound from patent publication US10155757B2, “Crystalline form of a JAK3 kinase inhibitor” (VECTURA LIMITED, priority 2015, dated 2018).

Molecules are shown by their SMILES.

This series is described as follows: Aerodynamic particle size distribution (APSD) by Next Generation Impactor (NGI), fine particle mass and its stability. It is filed as physicochemical. As to conditions: 1000 μg dose load in 20 mg formulation, NGI 60 Lmin^−1, F1 device. As for the experimental part: The aerodynamic particle size distribution (APSD) of the formulations was evaluated with the Next Generation Impactor (NGI) tested at a flow rate of 80 Lmin^−1 in the GyroHaler® device (Compound 1—Gentisic Acid) and 60 Lmin^−1 in the F1 device (Compound 1, Compound 1—Maleic Acid and Compound 1—Adipic Acid). One dose was collected for each NGI measurement. Compound 1 deposition on the NGI components was measured by a gradient high performance liquid Chromatography (HPLC) method with UV detection.
The co-crystals with adipic acid and maleic acid were tested in a Vectura unit dose device as disclosed in WO2010/086285, and the gentisic acid co-crystal was tested in a GyroHaler® device.

On to `Cn1c(=O)n([C@H]2CCCN(C(=O)CC#N)C2)c2nc(-c3cnn4ccccc34)ccc21` [Compound 1, (S)-3-(3-(1-methyl-2-oxo-5-(pyrazolo[1,5-a]pyridine-3-yl)-1H-imidazo[4,5-b]pyridine-3(2H)-yl)piperidin-1-yl)-3-oxopropanenitrile], for which the “Fine particle Mass (μg < 5 μm)” value stood at 418.2 µg (T = 0 w), 450.7 µg (T = 4 w) and 415.3 µg (T = 12 w).
